Entries after “also recorded” stand apart in the source; their conditions may differ. Where two headings read alike, the source gives them in different places.

The IC50 is the concentration at which inhibition is half-maximal. In general, EC50 refers to the concentration needed to bring the measured effect to its halfway point.

For one data set, the target named is T1, rat liver TrxR (Rattus norvegicus, UniProt O89049).
T1 sequence (O89049 1-499): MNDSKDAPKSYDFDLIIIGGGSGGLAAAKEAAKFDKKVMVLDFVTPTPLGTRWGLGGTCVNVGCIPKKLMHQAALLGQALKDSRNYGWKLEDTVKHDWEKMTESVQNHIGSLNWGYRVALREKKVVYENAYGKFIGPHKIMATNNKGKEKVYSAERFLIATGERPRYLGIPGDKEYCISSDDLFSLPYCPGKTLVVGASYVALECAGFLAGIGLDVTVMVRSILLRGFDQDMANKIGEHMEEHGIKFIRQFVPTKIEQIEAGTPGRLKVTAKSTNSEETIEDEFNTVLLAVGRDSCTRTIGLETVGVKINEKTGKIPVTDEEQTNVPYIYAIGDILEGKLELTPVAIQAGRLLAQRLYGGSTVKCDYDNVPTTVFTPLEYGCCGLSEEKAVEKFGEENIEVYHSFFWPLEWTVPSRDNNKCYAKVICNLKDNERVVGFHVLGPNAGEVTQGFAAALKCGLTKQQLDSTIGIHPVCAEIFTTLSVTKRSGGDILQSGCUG
Put plainly: Thioredoxin reductase inhibition, DTNB reduction assay.

For data set [1], the system named is MDA-MB-231 (breast adenocarcinoma). Put plainly: MTT cytotoxicity assay, MDA-MB-231. Conditions: for EC50: read-out: EC50 MDA-MB-231.
Procedure: (§1) Human ovarian carcinoma cells A2780 and A2780cisR, and human breast adenocarcinoma MDA-MB-231 cells, murine hepatocytes TAMH and human cardiomyocytes AC10 were obtained from ATCC. […] The stock of cisplatin was commercially available clinical grade solution in saline buffer.
(§2) Inhibition of cell viability assay. The cytotoxicity of the compounds was determined by colorimetric MTT assay. The cells were harvested from culture flasks by trypsinization and seeded into Cellstar 96-well microculture plates at the seeding density of 6000 cells per well (6×10^4 cells/mL). TAMH and AC10 cells were seeded at 12000 and 5000 cells per well, respectively. After cells were allowed to resume exponential growth for 24 hours, they were exposed to drugs at different concentrations in media for 72 hours. The drugs were diluted in complete medium at the desired concentration and added to each well (100 μL) and serially diluted to other wells. After exposure for 72 hours, the media was replaced with MTT in media (5 mg/mL, 100 μL) and incubated for additional 45 minutes. Subsequently, the medium was aspirated and the purple formazan crystals formed in viable cells were dissolved in DMSO (100 μL). Optical densities were measured at 570 nm using the BioTek H1 Synergy microplate reader. […] Evaluation was based on means from at least three independent experiments, each comprising six replicates per concentration level.
For data set [2], the system named is TAMH (transforming growth factor-a transgenic mouse hepatocytes). Nature of the data set: MTT toxicity assay in hepatocytes TAMH. Conditions: read-out: EC50 TAMH, exposure time 72 hours. Background: Tetrazolium dyes change colour on reduction, which living cells bring about.
Procedure: (§3) Cell lines and culture conditions. Human ovarian carcinoma cells A2780 and A2780cisR, and human breast adenocarcinoma MDA-MB-231 cells, murine hepatocytes TAMH and human cardiomyocytes AC10 were obtained from ATCC.
Inhibition of cell viability assay. The cytotoxicity of the compounds was determined by colorimetric MTT assay. The cells were harvested from culture flasks by trypsinization and seeded into Cellstar 96-well microculture plates at the seeding density of 6000 cells per well (6×10^4 cells/mL). TAMH and AC10 cells were seeded at 12000 and 5000 cells per well, respectively. After cells were allowed to resume exponential growth for 24 hours, they were exposed to drugs at different concentrations in media for 72 hours. The drugs were diluted in complete medium at the desired concentration and added to each well (100 μL) and serially diluted to other wells. After exposure for 72 hours, the media was replaced with MTT in media (5 mg/mL, 100 μL) and incubated for additional 45 minutes. Subsequently, the medium was aspirated and the purple formazan crystals formed in viable cells were dissolved in DMSO (100 μL). Optical densities were measured at 570 nm using the BioTek H1 Synergy microplate reader. […] Evaluation was based on means from at least three independent experiments, each comprising six replicates per concentration level. […]
The test system of data set [3] is A2780cisR (ovarian carcinoma). Put plainly: MTT cytotoxicity assay, A2780cisR. Conditions: for RF (Resistance Factor): IC50 (A2780cisR)/IC50 (A2780); for EC50: read-out: EC50 A2780cisR.
Procedure: as §1, §2
For data set [4], the system named is A2780 (ovarian carcinoma). Put plainly: MTT cytotoxicity assay, A2780. Conditions: read-out: EC50 A2780.
Procedure: as §1, §2
In data set [5] the test system is AC10 (human ventricular cardiomyocytes). Put plainly: MTT toxicity assay in cardiomyocytes AC10.
Procedure: as §3
Inhibition of cell viability assay. The cytotoxicity of the compounds was determined by colorimetric MTT assay. The cells were harvested from culture flasks by trypsinization and seeded into Cellstar 96-well microculture plates at the seeding density of 6000 cells per well (6×10^4 cells/mL). TAMH and AC10 cells were seeded at 12000 and 5000 cells per well, respectively. After cells were allowed to resume exponential growth for 24 hours, they were exposed to drugs at different concentrations in media for 72 hours. The drugs were diluted in complete medium at the desired concentration and added to each well (100 μL) and serially diluted to other wells. After exposure for 72 hours, the media was replaced with MTT in media (5 mg/mL, 100 μL) and incubated for additional 45 minutes. Subsequently, the medium was aspirated and the purple formazan crystals formed in viable cells were dissolved in DMSO (100 μL). Optical densities were measured at 570 nm using the BioTek H1 Synergy microplate reader. […] Evaluation was based on means from at least three independent experiments, each comprising six replicates per concentration level. For experiments with inhibitors, MDA-MB-231 cells were seeded at the seeding density of 8000 cells per well (8×10^4 cells/mL).
Data set [6] relates to MDA-MB-231 cells. Nature of the data set: Annexin V/PI apoptosis assay. Conditions: MDA-MB-231, 24 hours, equipotent concentrations.
Procedure: Annexin V/PI apoptosis assay. MDA-MB-231 cells were seeded into Cellstar 12-well plates (Greiner Bio-One) at a density of 20×10^4 cells/well (1 mL per well). […] After the supernatant solution was collected in 1.5 mL microtubes, the cells were washed with 100 μl of trypsin, which was combined with the supernatant. Subsequently, cells were trypsinized with 200 μl trypsin for 5 minutes at 37° C., 5% CO2, washed with 200 μl of PBS and combined with the supernatant. The cells were centrifuged at 2.5×10^3 rpm for 5 minutes and the pellets were washed once with PBS and resuspended in 500 μl of Annexin V binding buffer and stained with Annexin V-FITC and PI reagents. The fluorescence was immediately analyzed by flow cytometry. The resulting dot blots were acquired from 10000 events and quantified using Flowjo software (Flowjo LLC, Ashland, Oreg., USA).
MDA-MB-231 cells were treated with the compounds of interest at equipotent concentrations, corresponding to their IC50 values (FIG. 57).
For data set [7], the system named is MDA-MB-231 cells. Put plainly: Cellular accumulation of Au by ICP-MS. Conditions: ICP-MS after 24 hour exposure at 1.4 μM.
Procedure: Cellular accumulation of Au complexes was determined in MDA-MB-231 cells. Cells were seeded into Cellstar 6-well plates (Greiner Bio-one) at a density of 60×10^4 cells/well (2 mL per well). After the cells were allowed to resume exponential growth for 24 hours, they were exposed to compounds of interest at various concentrations for 24 hours at 37° C. The cells were washed twice with 1 mL of PBS and lysed with RIPA lysis buffer for 5-10 min at 4° C. The cell lysates were scraped from the wells and transferred to separate 1.5 mL microtubes. The supernatant was then collected after centrifugation (13000 rpm, 4° C. for 15 minutes) and total protein content of each sample was quantified via Bradford's assay. […] The resulting solution was diluted to 1 mL (2-4% v/v HNO3) with ultrapure Milli-Q water. Au content of each sample was quantified by ICP-MS. Re was used as an internal standard. […] Metal standards for calibration curve (0, 0.5, 1, 2, 5, 10, 20, 40 ppb) were freshly prepared before each measurement. All readings were made in triplicates in He mode.
Data set [8] can be described thus: Reactivity towards glutathione, ligand release (HR-MS, UV-vis). The class given is physicochemical. The settings on record: with GSH; HR-MS and UV-vis. The text has this:
NMR- and MS-based stability studies.
Intriguingly, the reactivity of Au^III-metformin complexes towards GSH was drastically different despite their similar structures.

The nature of data set [9]: Stability in ammonium carbonate buffer by high resolution ESI-MS. The settings on record: ammonium carbonate buffer pH 7.4, 37° C., 1, 3 and 24 hours.
Procedure: NMR and mass spectrometric (MS) methods were employed to characterize the stability of Au complexes in DMSO and aqueous media. ^1H NMR stability studies were performed over the period of 6-10 days in d^6-DMSO and D2O (1met*).
Data set [10] concerns MDA-MB-231 (breast adenocarcinoma).
Procedure: as §1, §2
For the next data set, the system named is MDA-MB-231 tumors. The settings on record: 250 mg/kg; cited from earlier work.
Data set [11] relates to AMPK-mTOR energy signaling pathway. Conditions: MDA-MB-231, 0.5×-2×EC50, 2, 6, 24 hours.
Procedure: Western blotting. MDA-MB-231 cells were seeded into Cellstar 6-well plates (Greiner Bio-One) at a density of 60×10^4 cells/well (2 mL per well). After the cells were allowed to resume exponential growth for 24 hours, they were exposed to compounds of interest at various concentrations for 2, 6 and 24 hours. The cells were washed twice with PBS and lysed with RIPA buffer (50-100 μL) and kept for 5-10 minutes at 4° C. The samples were sonicated in ice bath (3 times for 30 seconds). […] Equal quantities of protein (50 μg) were reconstituted in loading buffer (5× Laemmli Buffer with 5% DTT) and heated at 100° C. for 10 minutes. […] The protein bands were visualised with Ponceau S stain solution and the nitrocellulose membranes were cut into strips based on the protein ladder. The membranes were washed with a TBS-T wash buffer (0.1% Tween-20 in 1×PBS) 3 times for 5 minutes. Subsequently, they were blocked in 5% BSA (w/v) in wash buffer for 1 hour and incubated with the appropriate primary antibodies in 5% BSA (w/v) in wash buffer at 4° C. overnight. The membranes were washed with a wash buffer 3 times for 7 minutes. […] Immune complexes were detected with Luminata HRP substrates and analysed using enhanced chemiluminescence imaging. […]
The mark [12] stands for this setting: MTT assay, exposure time 72 hours.

Procedure for Cyclic voltammetry: Cyclic voltammetry and spectroelectrochemistry. Cyclic voltammetry experiments with approximately 0.5 mM solutions of investigated gold complexes in 0.1 M nBu4NPF6 supporting electrolyte in dimethylsulphoxide (DMSO) or in pH 7 buffered solutions were performed under argon atmosphere using a three-electrode arrangement with glassy carbon 1 mm disc working electrode (from lonode, Australia), platinum wire as counter electrode, and silver wire as pseudo-reference electrode. Ferrocene (Fc) served as the internal potential standard for DMSO and potassium hexacyanoferrate(II) for aqueous solutions. […] The cell was positioned in the CUV-UV Cuvette Holder (Ocean Optics) connected to the diode-array UV-vis-NIR spectrometer by optical fibres. UV-vis-NIR spectra were processed using the AvaSoft 7.7 software package. Halogen and deuterium lamps were used as light sources (Avantes, Model AvaLight-DH-S-BAL).
Procedure for rat liver TrxR: Thioredoxin reductase inhibition assay. Assay was performed according to the protocol provided by the manufacturer. […] Compounds of interest were serially diluted at the separate 96-well plate and 4 μl of each concentration was added to the appropriate wells. The reaction mixture was incubated with gentle shaking (room temperature, 30 minutes). Subsequently, 6 μl of DNTB (100 mM) was added and incubated for an additional 3 minutes.
Compounds of interest at six different concentrations were incubated with the isolated rat liver TrxR enzyme in the presence of NADPH for 30 minutes, followed by 2 minutes incubation with the DNTB reagent.

For `CN(C)C1=[NH+][Au-]2([NH]C(N)=N1)[c]1ccccc1-c1cccc[n+]12` (centres unmarked) [1met*], the IC50 against rat liver TrxR worked out at 0.0012 ± 0.0005 µM.

As for `N.N.[Cl][Pt][Cl]` [Cisplatin], the EC50 in data set [1] (setting [12]) was found to be 27 ± 8 µM; in data set [2], 52 ± 7 µM; in data set [3] (setting [12]), 11 ± 2 µM; in data set [4] (setting [12]), 0.6 ± 0.05 µM; in data set [5] (read-out: EC50 AC10, MTT assay, exposure time 72 hours), 10 ± 2 µM. Moreover, in [3], the “RF (Resistance Factor)” value turned out to be 18. The apoptotic cell population entry in the data set with MDA-MB-231 cells [6] is recorded as “markedly lower”.

Regarding `[Cl][Au-]1([Cl])[c]2ccccc2-c2cccc[n+]21` [Compound 1, (2-phenylpyridine)AuCl2], the concentration for a half-maximal effect (EC50) in data set [1] (setting [12]) amounted to 7.8 ± 1.7 µM; in data set [3] (setting [12]) it was 4 ± 0.8 µM; in data set [4] (setting [12]) it was 2 ± 0.4 µM. In data set [3], the “RF (Resistance Factor)” value was determined as 2. The “Cellular accumulation MDA-MB-231” value in the data set on MDA-MB-231 cells [7] amounted to 0.36 ± 0.10 nmol Au/mg protein. The apoptotic cell population result with MDA-MB-231 cells [6] was “significantly higher”.

As for `NC1=NC(NCCc2ccccc2)=[NH+][Au-]2([NH]1)[c]1ccccc1-c1cccc[n+]12` (centres unmarked) [Compound 1phen], the cytotoxicity in words entry in [1] (tested cancer cell lines, MTT 72 h) is “least cytotoxic representative of this series”. The IC50 at rat liver TrxR stood at 0.0031 ± 0.0015 µM. In addition, the “reactivity towards GSH / ligand release in words” value in [8] is reported as “release of phenformin was detected; also recorded: Only the peak at m/z 206.1622, which corresponds to free phenformin, was observed”. Besides, the “stability, detection of molecular ion [M]+” value in data set [9] was “not detected after 1 hour incubation”. Also, the apoptotic cell population entry in the data set with MDA-MB-231 cells [6] is “no changes in apoptotic population”.

Turning to `[Cl][Au-]1([Cl])[c]2ccccc2Cc2cccc[n+]21` [Compound 2, (2-benzylpyridine)Au^IIICl2], the EC50 is 7.1 ± 0.4 µM in data set [1] (setting [12]), 7.2 ± 1.5 µM in data set [3] (setting [12]) and 6.5 ± 0.8 µM in data set [4] (setting [12]). In addition, the “RF (Resistance Factor)” value in data set [3] is recorded as 1. Moreover, the “Cellular accumulation MDA-MB-231” value in the data set with MDA-MB-231 cells [7] is 0.14 ± 0.03 nmol Au/mg protein.

`CN(C)C1=[NH+][Au-]2([NH]C(N)=N1)[c]1ccccc1Cc1cccc[n+]12` (centres unmarked) [Compound 2met] returned an IC50 against rat liver TrxR of 0.00055 ± 9e-05 µM. Also, in data set [8], the “reactivity towards GSH / ligand release in words” value is “stable both in the absence and presence of GSH; also recorded: did not significantly change over time”. The “stability, detection of molecular ion [M]+” value in data set [9] is on record as “stable for 24 hours”.

Consider `O=C1c2cccc[c]2[Au-]([Cl])([Cl])[n+]2ccccc21` [Compound 3, (2-benzoylpyridine)Au^IIICl2], for which the EC50 in data set [1] (setting [12]) was 19 ± 3 µM; in data set [3] (setting [12]), 9.1 ± 2.9 µM; in data set [4] (setting [12]), 8.6 ± 1.7 µM. Moreover, the “RF (Resistance Factor)” value in data set [3] amounted to 1. In addition, the “Cellular accumulation MDA-MB-231” value in the data set with MDA-MB-231 cells [7] is on record as 0.14 ± 0.05 nmol Au/mg protein.

Consider `CN(C)C(=N)N=C(N)N` [Metformin], for which, in data set [10], the cytotoxicity in words result is “devoid of cytotoxicity”. Besides, the EC50 was more than 1000 µM in [1] (Homo sapiens, MDA-MB-231, 72 h); more than 1000 µM in data set [3] (Homo sapiens, A2780cisR, 72 h); more than 1000 µM in [4] (Homo sapiens, A2780, 72 h). In addition, the “anticancer effects in an MDA-MB-231 mammary fat model” value in the data set with MDA-MB-231 tumors is recorded as “negligible”. In addition, the “redox activity in words” value in “Cyclic voltammetry” is on record as “did not show any redox activity”. In the data set with MDA-MB-231 cells [6], the apoptotic cell population result is reported as “markedly lower”.

`[H]/N=C(/N)N/C(=N/[H])NCCc1ccccc1` [Phenformin]: the EC50 in data set [1] (Homo sapiens, MDA-MB-231, 72 h) was 608 ± 23 µM; in [3] (Homo sapiens, A2780cisR, 72 h), 246 ± 24 µM; in [4] (Homo sapiens, A2780, 72 h) it was 104 ± 21 µM.

As for `COc1cccc2c1C(=O)c1c(O)c3c(c(O)c1C2=O)C[C@@](O)(C(=O)CO)C[C@@H]3O[C@H]1C[C@H](N)[C@H](O)[C@H](C)O1` [doxorubicin], the IC50 in [5] (read-out: IC50 value in AC10 cells (heart toxicity)) stood at 2.3 ± 0.2 µM.

Take “[Au^III(2-phenylpyridine)(metformin)]PF6 [Compound 1met]”: the “AMPK and mTOR phosphorylation” value in data set [11] is “dose-dependent increase of AMPK phosphorylation and decrease of mTOR phosphorylation”.

The record behind these values is patent publication US20230106519A1, “GOLD(III)-BIGUANIDE PRODRUGS, METHODS OF PREPARATION AND USES THEREOF” (National University of Singapore, priority 2020, published 2023).
